Experimental data as given in US20230066946A1, “1,5-DIPHENYLPYRAZOLYL-3-OXYALKYL ACIDS AND 1-PHENYL-5-THIENYLPYRAZOLYL-3-OXYALKYL ACIDS AND THE USE THEREOF FOR CONTROL OF UNWANTED PLANT GROWTH” (Bayer Aktiengesellschaft, priority 2019, published 2023).
Several values for one entry are separate records, joined by “and”; a condition that tells them apart may be missing. Equal values may be shown once.

Columns and labels:
[1] = test system: ALOMY; assay: Post-emergence herbicidal action against ALOMY; type: in vivo, Alopecurus myosuroides; conditions: 1280 g/ha, post-emergence at one-leaf stage, rated visually after about 3 weeks vs untreated controls
Summary of the method: (§1)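 Weeds grown in sandy loam under greenhouse conditions were sprayed at the one-leaf stage, 2-3 weeks after sowing. Compounds were applied as WP or EC formulations in water with 0.5% additive at 600 L/ha, at 1280 or 320 g/ha. Activity was rated visually about 3 weeks later against untreated controls (0-100%).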

[2] = test system: AMARE; assay: Post-emergence herbicidal action against AMARE; type: in vivo, Amaranthus retroflexus; conditions: visual rating about 3 weeks after treatment
Summary of the method: as §1

[3] = test system: VIOTR; assay: Pre-emergence herbicidal action against VIOTR; type: in vivo, Viola tricolor; conditions: 1280 g/ha, scored visually after about 3 weeks vs untreated controls
Summary of the method: (§2)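 Weed seeds were sown in sandy loam soil in pots and covered; compounds formulated as WP or EC were sprayed onto the covering soil as aqueous suspension/emulsion with 0.5% additive at 600 L/ha water. Application rate 1280 or 320 g/ha. Greenhouse grown; visual % activity vs untreated controls after about 3 weeks.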

[4] = test system: LOLRI; assay: Post-emergence herbicidal action against LOLRI; type: in vivo, Lolium rigidum; conditions: 1280 g/ha, post-emergence at one-leaf stage, rated visually after about 3 weeks vs untreated controls
Procedure: [table] Seeds of mono- and dicotyledonous weed plants are placed in plastic pots in sandy loam soil (twin sowing with one species each of mono- or dicotyledonous weed plants per pot), covered with soil and cultivated in a greenhouse under controlled growth conditions. 2 to 3 weeks after sowing, the test plants are treated at the one-leaf stage. The compounds of the invention, formulated in the form of wettable powders (WP) or as emulsion concentrates (EC), are applied to the green parts of the plants as aqueous suspension or emulsion with addition of 0.5% additive at a water application rate equivalent to 600 litres per hectare. After the test plants have been kept in the greenhouse under optimum growth conditions for about 3 weeks, the activity of the preparations is rated visually in comparison to untreated controls. For example, 100% activity=the plants have died, 0% activity=like control plants. Tables 5.1-5.16 below show the effects of selected compounds of the general formula (I) according to Tables 1 to 3 on various harmful plants at an application rate corresponding to 1280 or 320 g/ha, which have been obtained by the aforementioned experimental method.

[5] = test system: ALOMY; assay: Pre-emergence herbicidal action against ALOMY; type: in vivo, Alopecurus myosuroides; conditions: scored visually after about 3 weeks vs untreated controls, 100% = plants have died, 0% = like control plants
Summary of the method: as §2

[6] = test system: PHBPU; assay: Pre-emergence herbicidal action against PHBPU; type: in vivo, Pharbitis purpurea; conditions: 1280 g/ha, scored visually after about 3 weeks vs untreated controls
From the text: (§3) Seeds of mono- and dicotyledonous weed plants are placed in plastic pots in sandy loam soil (doubly sown with one species each of mono- or dicotyledonous weed plants per pot) and covered with soil. The compounds of the invention, formulated in the form of wettable powders (WP) or as emulsion concentrates (EC), are then applied onto the surface of the covering soil as aqueous suspension or emulsion with addition of 0.5% additive at a water application rate equivalent to 600 litres per hectare. After the treatment, the pots are placed in a greenhouse and kept under good growth conditions for the trial plants. After about 3 weeks, the effect of the preparations is scored visually in comparison with untreated controls as percentages. For example, 100% activity=the plants have died, 0% activity=like control plants. [table] Tables 4.1-4.15 below show the effects of selected compounds of the general formula (I) according to Tables 1 to 3 on various harmful plants at an application rate corresponding to 1280 or 320 g/ha, which have been obtained by the aforementioned experimental method.

[7] = test system: SETVI; assay: Pre-emergence herbicidal action against SETVI; type: in vivo, Setaria viridis; conditions: 1280 g/ha, scored visually after about 3 weeks vs untreated controls
Summary of the method: as §2

[8] = test system: MATIN; assay: Post-emergence herbicidal action against MATIN; type: in vivo, Matricaria inodora; conditions: visual rating about 3 weeks after treatment
Summary of the method: as §1

[9] = test system: PHBPU; assay: Post-emergence herbicidal action against PHBPU; type: in vivo, Pharbitis purpurea; conditions: 320 g/ha, visual rating about 3 weeks after treatment
Summary of the method: as §1

[10] = test system: harmful plants; assay: Pre-emergence herbicidal action, summary of Tables 4.1-4.15; type: in vivo; conditions: result in words
Summary of the method: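 Percent herbicidal action (100% = plants dead, 0% = like controls) was assessed visually about 3 weeks after treatment. Application rates of 1280 or 320 g/ha were applied to the covering soil of freshly sown sandy-loam pots, in 600 l/ha water with 0.5% additive, before emergence.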

[11] = test system: AMARE; assay: Pre-emergence herbicidal action against AMARE; type: in vivo, Amaranthus retroflexus; conditions: scored visually after about 3 weeks vs untreated controls
Summary of the method: as §2

[12] = test system: AVEFA; assay: Pre-emergence herbicidal action against AVEFA; type: in vivo, Avena fatua; conditions: scored visually after about 3 weeks vs untreated controls, 100% = plants have died, 0% = like control plants
From the text: as §3

[13] = test system: POLCO; assay: Post-emergence herbicidal action against POLCO; type: in vivo, Polygonum convolvulus; conditions: 320 g/ha, visual rating about 3 weeks after treatment
Summary of the method: as §1

[14] = test system: VERPE; assay: Pre-emergence herbicidal action against VERPE; type: in vivo, Veronica persica; conditions: 320 g/ha, scored visually after about 3 weeks vs untreated controls
Summary of the method: as §2

[15] = test system: STEME; assay: Pre-emergence herbicidal action against STEME; type: in vivo, Stellaria media; conditions: scored visually after about 3 weeks vs untreated controls
Summary of the method: as §2

[16] = test system: AVEFA; assay: Post-emergence herbicidal action against AVEFA; type: in vivo, Avena fatua; conditions: 1280 g/ha, post-emergence at one-leaf stage, rated visually after about 3 weeks vs untreated controls
Summary of the method: as §1

[17] = test system: MATIN; assay: Pre-emergence herbicidal action against MATIN; type: in vivo, Matricaria inodora; conditions: 1280 g/ha, scored visually after about 3 weeks vs untreated controls
Summary of the method: as §2

[18] = test system: POLCO; assay: Pre-emergence herbicidal action against POLCO; type: in vivo, Polygonum convolvulus; conditions: 320 g/ha, scored visually after about 3 weeks vs untreated controls
Summary of the method: as §2

[19] = test system: HORMU; assay: Post-emergence herbicidal action against HORMU; type: in vivo, Hordeum murinum; conditions: 320 g/ha, visual rating about 3 weeks after treatment
Summary of the method: as §1

[20] = test system: ECHCG; assay: Pre-emergence herbicidal action against ECHCG; type: in vivo, Echinochloa crus-galli; conditions: scored visually after about 3 weeks vs untreated controls, 100% = plants have died, 0% = like control plants
Summary of the method: as §2

[21] = test system: VERPE; assay: Post-emergence herbicidal action against VERPE; type: in vivo, Veronica persica; conditions: 320 g/ha, visual rating about 3 weeks after treatment
Summary of the method: as §1

[22] = test system: STEME; assay: Post-emergence herbicidal action against STEME; type: in vivo, Stellaria media; conditions: visual rating about 3 weeks after treatment
Summary of the method: as §1

**Q.** For `O=C(O)COc1nn(-c2ccccc2)c(-c2ccc(F)cc2)c1Br` [I-057], which “Post-emergence action against ALOMY in %” value [1] is on record?
**A.** 90%

**Q.** What about the “Post-emergence action against AMARE in %” value ([2]; 320 g/ha) of the same compound?
**A.** 80%

**Q.** And the “Post-emergence action against AMARE in %” value ([2]; 1280 g/ha)?
**A.** 80%

**Q.** And the “Pre-emergence action against VIOTR in %” value [3]?
**A.** 100%

**Q.** What about the “Post-emergence action against LOLRI in %” value [4] of the same compound?
**A.** 80%

**Q.** What about the “Pre-emergence action at 1280 g/ha against ALOMY in %” value [5] of the same compound?
**A.** 90%

**Q.** What about the “Pre-emergence action against PHBPU in %” value [6] of the same compound?
**A.** 90%

**Q.** And the “Pre-emergence action against SETVI in %” value [7]?
**A.** 90%

**Q.** And the “Post-emergence action against MATIN in %” value ([8]; 320 g/ha)?
**A.** 80%

**Q.** What about the “Post-emergence action against MATIN in %” value ([8]; 1280 g/ha) of the same compound?
**A.** 90%

**Q.** What about the “Post-emergence action against PHBPU in %” value [9] of the same compound?
**A.** 90%

**Q.** And the “herbicidal efficacy against harmful plants in the case of pre-emergence treatment” value [10]?
**A.** good herbicidal efficacy

**Q.** And the “Pre-emergence action at 320 g/ha against AMARE in %” value ([11]; 320 g/ha, 100% = plants have died, 0% = like control plants)?
**A.** 100% and 90%

**Q.** What about the “Pre-emergence action against AMARE in %” value ([11]; 1280 g/ha) of the same compound?
**A.** 100%

**Q.** What about the “Pre-emergence action at 1280 g/ha against AVEFA in %” value [12] of the same compound?
**A.** 80%

**Q.** And the “Post-emergence action against POLCO in %” value [13]?
**A.** 80%

**Q.** And the “Pre-emergence action against VERPE in %” value [14]?
**A.** 90%

**Q.** And the “Pre-emergence action against STEME in %” value ([15]; 320 g/ha)?
**A.** 80%

**Q.** What about the “Pre-emergence action against STEME in %” value ([15]; 1280 g/ha) of the same compound?
**A.** 100%

**Q.** What about the “Post-emergence action against AVEFA in %” value [16] of the same compound?
**A.** 90%

**Q.** And the “Pre-emergence action against MATIN in %” value [17]?
**A.** 100%

**Q.** And the “Pre-emergence action against POLCO in %” value [18]?
**A.** 90%

**Q.** What about the “Post-emergence action against HORMU in %” value [19] of the same compound?
**A.** 80%

**Q.** And the “Pre-emergence action at 1280 g/ha against ECHCG in %” value [20]?
**A.** 80%

**Q.** And the “Post-emergence action against VERPE in %” value [21]?
**A.** 80%

**Q.** What about the “Post-emergence action against STEME in %” value ([22]; 320 g/ha) of the same compound?
**A.** 80%

**Q.** And the “Post-emergence action against STEME in %” value ([22]; 1280 g/ha)?
**A.** 90%
